Earlier results as cited in patent publication US20240082136A1, “TOPICAL COMPOSITION” (LILIGER LTD., priority 2021, published 2024).

Columns and labels:
cutaneous vasodilation = settings: in vivo
[1] = tested on: stratum corneum / dry skin; settings: topical treatment

| Molecule | Cutaneous vasodilation (cutaneous vasodilation) | Clinical symptoms of dry skin [1] | Skin moisture [1] | Urea in the stratum corneum [1] |
| --- | --- | --- | --- | --- |
| botulinum toxin A | eliminates | – | – | – |
| Cl.N=C(N)NCCC[C@H](N)C(=O)O [arginine hydrochloride] | – | improvement | increase | significantly increase |
